Test results published in patent US20100298381A1, “GAMMA SECRETASE MODULATORS” (Schering Corporation, priority 2007, published 2010).

Tests used:
[1] = test system: Aβ42 in HEK293 cells overexpressing APP with Swedish and London mutations; experiment: Secretase reaction and Aβ analysis in whole cells, Aβ42 (ECL sandwich immunoassay); format: cell-based; conditions: Homo sapiens, 5 hour at 37° C.
Experimental: (§1) Secretase Reaction and Aβ Analysis in Whole Cells: HEK293 cells overexpressing APP with Swedish and London mutations were treated with the specified compounds for 5 hour at 37° C. in […] of DMEM medium containing 10% fetal bovine serum. At the end of the incubation, total Aβ, Aβ40 and Aβ42 were measured using electrochemiluminescence (ECL) based sandwich immunoassays. Total Aβ was determined using a pair of antibodies TAG-WO2 and biotin-4G8, Aβ40 was identified with antibody pairs TAG-G2-10 and biotin-4G8, while Aβ42 was identified with TAG-G2-11 and biotin-4G8. The ECL signal was measured using Sector Imager 2400 (Meso Scale Discovery).

[2] = test system: total Aβ in HEK293 cells overexpressing APP with Swedish and London mutations; experiment: Secretase reaction and Aβ analysis in whole cells, total Aβ (ECL sandwich immunoassay); format: cell-based; conditions: Homo sapiens, 5 hour at 37° C.
Experimental: as §1

Row | SMILES | IC50 [1] [nM] | IC50 [2] [nM]
1 | CC/N=C1\N/C(=C\c2ccc(-n3cnc(C)c3)c(OC)c2)C(=O)N1[C@H](C)c1ccc(F)cc1 [Example A9m] | 46 to 94 | 778 to 20000
2 | COc1cc(/C=C2\N/C(=N\CC3CC3)N(Cc3cc(F)c(F)c(F)c3)C2=O)ccc1-n1cnc(C)c1 [Example A9r] | 46 to 94 | 778 to 20000
3 | CC/N=C1\N/C(=C\c2ccc(-n3cnc(C)c3)c(OC)c2)C(=O)N1Cc1cc(F)c(F)c(F)c1 [Example A9t] | 46 to 94 | 778 to 20000
4 | COc1cc(/C=C2\N/C(=N\CCO)N(Cc3cc(F)c(F)c(F)c3)C2=O)ccc1-n1cnc(C)c1 [Example A9u] | 46 to 94 | 778 to 20000
5 | CC/N=C1\N/C(=C\c2ccc(-n3cnc(C)c3)c(OC)c2)C(=O)N1Cc1ccc(F)cc1 [Example B2] | 46 to 94 | 778 to 20000
6 | COc1cc(/C=C2\N/C(=N\CCO)N(Cc3ccc(F)cc3)C2=O)ccc1-n1cnc(C)c1 [Example B4] | 46 to 94 | 778 to 20000
7 | CCCC/N=C1\N/C(=C\c2ccc(-n3cnc(C)c3)c(OC)c2)C(=O)N1Cc1ccc(F)cc1 [Example B5] | 46 to 94 | 778 to 20000
8 | COc1cc(/C=C2\N/C(=N\CC3CC3)N(Cc3ccc(F)cc3)C2=O)ccc1-n1cnc(C)c1 [Example B6] | 46 to 94 | 778 to 20000
9 | COc1cc(/C=C2\NC(=N)N(C(C)c3cc(F)c(F)c(F)c3)C2=O)ccc1-n1cnc(C)c1 (centres unmarked) [Example B7] | 46 to 94 | 778 to 20000
10 | CC/N=C1\N/C(=C\c2ccc(-n3cnc(C)c3)c(OC)c2)C(=O)N1C(C)c1cc(F)c(F)c(F)c1 (centres unmarked) [Example B8] | 46 to 94 | 778 to 20000
11 | COc1cc(/C=C2\N/C(=N\CCO)N(C(C)c3cc(F)c(F)c(F)c3)C2=O)ccc1-n1cnc(C)c1 (centres unmarked) [Example B10] | 46 to 94 | 778 to 20000
12 | CCCC/N=C1\N/C(=C\c2ccc(-n3cnc(C)c3)c(OC)c2)C(=O)N1C(C)c1cc(F)c(F)c(F)c1 (centres unmarked) [Example B11] | 46 to 94 | 778 to 20000
13 | COc1cc(/C=C2\N/C(=N\CC3CC3)N(C(C)c3cc(F)c(F)c(F)c3)C2=O)ccc1-n1cnc(C)c1 (centres unmarked) [Example B12] | 46 to 94 | 778 to 20000
14 | COc1cc(/C=C2\NC(=N)N([C@H](C)c3ccc(F)cc3)C2=O)ccc1-n1cnc(C)c1 [Example B13] | 46 to 94 | 778 to 20000
15 | CCCC/N=C1\N/C(=C\c2ccc(-n3cnc(C)c3)c(OC)c2)C(=O)N1[C@H](C)c1ccc(F)cc1 [Example B14] | 46 to 94 | 778 to 20000
16 | COc1cc(/C=C2\N/C(=N\CCO)N([C@H](C)c3ccc(F)cc3)C2=O)ccc1-n1cnc(C)c1 [Example B15] | 46 to 94 | 778 to 20000
17 | COc1cc(/C=C2\N/C(=N\CC(F)(F)F)N([C@H](C)c3ccc(F)cc3)C2=O)ccc1-n1cnc(C)c1 [Example B18] | 46 to 94 | 778 to 20000
18 | CCCC/N=C1\N/C(=C\c2ccc(-n3cnc(C)c3)c(OC)c2)C(=O)N1Cc1cc(F)c(F)c(F)c1 [Example B22] | 46 to 94 | 778 to 20000
19 | COc1cc(/C=C2\N/C(=N\CC(F)(F)F)N(Cc3cc(F)c(F)c(F)c3)C2=O)ccc1-n1cnc(C)c1 [Example B23] | 46 to 94 | 778 to 20000
